Data set [1] in a line: Toxicity in ig dosed Kunming mouse. The data set is classed as organism-based. As to conditions: in vivo, po.
A short description of data set [2]: Therapeutic index, ratio of LD50 in Kunming mouse to ED50 for analgesic activity in mouse. The following applies: in vivo, read-out: Ratio LD50/ED50. The data set is classed as organism-based.
The test system of a further data set is Mus musculus. As to the kind of experiment: Analgesic activity in ig dosed mouse by hot plate test. Type of data set: functional. As to conditions: po.

Each structure is given as a SMILES string.

Usually LD50 stands for the dose at which mortality reaches 50%. The term ED50 denotes the midpoint of the dose-response relation. Read a high ED50 as a need for a large dose. In data set [1], `CCN1C[C@]2(COC)[C@H](O)C[C@H](OC)[C@@]34[C@@H]5C[C@@]6(O)[C@H](OC(=O)c7ccccc7)[C@@H]5[C@@](OC(C)=O)([C@@H]([C@H](OC)[C@H]23)[C@@H]14)[C@@H](O)[C@@H]6OC` [ACONITINE] gave an LD50 of 0.16 mg/kg. Further, the selectivity ratio in data set [2] turned out to be 2. This molecule came in with an ED50 in the data set on Mus musculus of 0.08 mg/kg.
`CCN1C[C@]2(COC)CC[C@H](OC)[C@@]34C1O[C@H](C=C1[C@H]5[C@@H](O)[C@H](C[C@H]53)[C@@H](OC)[C@H]1O)[C@H]24` [GUIWULINE]: in data set [1], the LD50 is 500 mg/kg. Further, the selectivity ratio in data set [2] amounted to 33. For the same molecule, the ED50 in the data set on Mus musculus turned out to be 15 mg/kg.

Values taken from ChEMBL document CHEMBL2040812, “A novel franchetine type norditerpenoid isolated from the roots of Aconitum carmichaeli Debx. with potential analgesic activity and less toxicity” (Bioorg Med Chem Lett, 2012).
